Data reported in article PMC3914206.

Experiments:
Type in all cases: binding
panel of 442 kinases [1] = molecular target: T1, panel of 442 kinases (Homo sapiens, UniProt Q05397); conditions: Compound Concentration 10 µM
T1 construct: purchased KINOMEscan
From the text: (§1) We assessed the selectivity of members of this scaffold using the KINOMEscan methodology across a near comprehensive panel of 442 kinases [[18,27]].

panel of 442 kinases [2] = molecular target: T2, panel of 442 kinases (Homo sapiens, UniProt P10721, V559D/V654A); conditions: Compound Concentration 10 µM
T2 construct: purchased KINOMEscan
T2 sequence (P10721 26-976 V559D/V654A): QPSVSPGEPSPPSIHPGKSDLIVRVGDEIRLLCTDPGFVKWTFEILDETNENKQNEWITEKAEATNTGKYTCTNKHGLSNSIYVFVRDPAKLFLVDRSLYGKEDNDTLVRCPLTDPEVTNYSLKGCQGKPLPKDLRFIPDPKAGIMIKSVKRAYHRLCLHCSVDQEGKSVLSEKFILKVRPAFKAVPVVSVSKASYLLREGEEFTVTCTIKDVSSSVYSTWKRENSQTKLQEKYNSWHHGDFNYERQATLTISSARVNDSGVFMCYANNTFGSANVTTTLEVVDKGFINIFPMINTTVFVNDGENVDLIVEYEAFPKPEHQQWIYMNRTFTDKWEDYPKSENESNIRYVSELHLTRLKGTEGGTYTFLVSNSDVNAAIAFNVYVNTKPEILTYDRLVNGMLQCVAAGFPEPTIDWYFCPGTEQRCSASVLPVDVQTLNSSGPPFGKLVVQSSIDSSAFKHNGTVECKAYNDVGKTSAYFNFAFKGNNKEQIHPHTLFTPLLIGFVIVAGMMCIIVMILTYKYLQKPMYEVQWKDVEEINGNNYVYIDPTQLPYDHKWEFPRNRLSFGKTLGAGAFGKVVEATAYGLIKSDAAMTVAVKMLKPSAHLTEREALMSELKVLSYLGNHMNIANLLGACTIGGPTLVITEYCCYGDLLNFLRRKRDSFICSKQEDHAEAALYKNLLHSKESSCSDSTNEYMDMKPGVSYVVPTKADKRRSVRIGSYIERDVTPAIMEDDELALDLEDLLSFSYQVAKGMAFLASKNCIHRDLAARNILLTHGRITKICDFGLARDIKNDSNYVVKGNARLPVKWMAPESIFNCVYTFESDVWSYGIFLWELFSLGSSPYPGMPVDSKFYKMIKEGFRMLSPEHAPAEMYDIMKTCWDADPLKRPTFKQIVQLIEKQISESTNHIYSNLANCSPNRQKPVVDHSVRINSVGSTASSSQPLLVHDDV
From the text: as §1

panel of 442 kinases [3] = molecular target: T3, panel of 442 kinases (Homo sapiens, UniProt Q02763); conditions: kinase TIE2; compound concentration 10 µM
T3 construct: purchased KINOMEscan
T3 sequence (Q02763 23-1124): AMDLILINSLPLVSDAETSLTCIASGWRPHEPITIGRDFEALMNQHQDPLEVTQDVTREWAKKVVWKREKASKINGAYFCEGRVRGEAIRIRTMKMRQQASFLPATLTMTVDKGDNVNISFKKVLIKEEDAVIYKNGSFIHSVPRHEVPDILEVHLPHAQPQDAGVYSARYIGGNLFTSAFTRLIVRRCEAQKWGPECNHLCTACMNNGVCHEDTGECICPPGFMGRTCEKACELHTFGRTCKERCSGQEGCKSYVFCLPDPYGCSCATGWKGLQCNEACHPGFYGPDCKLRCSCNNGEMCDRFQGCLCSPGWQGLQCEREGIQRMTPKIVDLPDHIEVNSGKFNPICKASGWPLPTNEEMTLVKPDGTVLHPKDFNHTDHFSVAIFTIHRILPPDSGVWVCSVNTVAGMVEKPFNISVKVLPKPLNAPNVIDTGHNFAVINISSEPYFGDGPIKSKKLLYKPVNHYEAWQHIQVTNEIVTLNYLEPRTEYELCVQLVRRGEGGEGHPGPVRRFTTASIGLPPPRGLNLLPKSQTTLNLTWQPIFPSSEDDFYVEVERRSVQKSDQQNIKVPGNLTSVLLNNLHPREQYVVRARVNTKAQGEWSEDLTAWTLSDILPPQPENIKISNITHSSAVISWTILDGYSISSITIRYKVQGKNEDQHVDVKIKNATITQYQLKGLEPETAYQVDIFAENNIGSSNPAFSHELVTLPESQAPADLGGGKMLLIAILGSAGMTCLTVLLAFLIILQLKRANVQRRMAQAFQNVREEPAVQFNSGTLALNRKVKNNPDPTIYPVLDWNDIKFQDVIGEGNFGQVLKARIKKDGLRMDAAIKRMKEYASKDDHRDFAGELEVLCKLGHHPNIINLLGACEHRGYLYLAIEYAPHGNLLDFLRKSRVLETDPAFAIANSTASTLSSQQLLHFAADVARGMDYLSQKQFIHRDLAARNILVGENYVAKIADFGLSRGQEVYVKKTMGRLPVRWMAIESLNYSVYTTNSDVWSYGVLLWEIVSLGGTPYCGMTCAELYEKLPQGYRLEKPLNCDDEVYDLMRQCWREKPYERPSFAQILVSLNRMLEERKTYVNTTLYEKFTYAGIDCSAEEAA
From the text: as §1

T1 sequence (Q05397 whole entry): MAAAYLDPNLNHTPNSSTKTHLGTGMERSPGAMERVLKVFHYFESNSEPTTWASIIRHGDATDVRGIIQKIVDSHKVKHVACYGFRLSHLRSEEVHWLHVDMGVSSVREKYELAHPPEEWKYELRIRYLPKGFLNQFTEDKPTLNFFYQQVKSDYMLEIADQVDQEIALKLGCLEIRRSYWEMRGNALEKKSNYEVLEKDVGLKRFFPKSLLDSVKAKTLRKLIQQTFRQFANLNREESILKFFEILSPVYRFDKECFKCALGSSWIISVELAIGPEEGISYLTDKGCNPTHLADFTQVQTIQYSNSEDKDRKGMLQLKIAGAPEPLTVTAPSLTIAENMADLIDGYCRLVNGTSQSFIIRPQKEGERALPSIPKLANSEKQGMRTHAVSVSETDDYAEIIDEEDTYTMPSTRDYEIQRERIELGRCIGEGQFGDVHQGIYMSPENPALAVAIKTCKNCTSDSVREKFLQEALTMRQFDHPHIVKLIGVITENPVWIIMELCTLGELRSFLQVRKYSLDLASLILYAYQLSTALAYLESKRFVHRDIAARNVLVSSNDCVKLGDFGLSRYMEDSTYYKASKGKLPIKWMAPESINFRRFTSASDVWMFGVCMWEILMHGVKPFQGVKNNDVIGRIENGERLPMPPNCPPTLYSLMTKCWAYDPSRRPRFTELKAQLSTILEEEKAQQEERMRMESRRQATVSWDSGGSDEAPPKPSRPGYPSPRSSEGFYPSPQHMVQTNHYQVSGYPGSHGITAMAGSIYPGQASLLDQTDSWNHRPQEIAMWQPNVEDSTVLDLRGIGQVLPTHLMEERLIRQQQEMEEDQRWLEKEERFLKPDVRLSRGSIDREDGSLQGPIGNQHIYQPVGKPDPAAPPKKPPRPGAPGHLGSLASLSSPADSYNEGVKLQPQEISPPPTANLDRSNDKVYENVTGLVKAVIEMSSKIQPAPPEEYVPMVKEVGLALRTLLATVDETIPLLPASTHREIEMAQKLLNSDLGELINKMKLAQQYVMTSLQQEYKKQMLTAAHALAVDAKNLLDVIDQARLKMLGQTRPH

SMILES | KINOMEscan: FAK (panel of 442 kinases [1]) | KINOMEscan: KIT(V559D,V654A) (panel of 442 kinases [2]) | % Ctrl, TIE2 (panel of 442 kinases [3]) [% Ctrl]
COc1cc(C(=O)N2CCC(N3CCN(C)CC3)CC2)ccc1Nc1ncc2c(n1)N(C)c1ccccc1C(=O)N2C [15 (LRRK2-IN-1)] | 34 | 100 | 100
COc1cc(C(=O)N2CCC(N3CCN(C)CC3)CC2)ccc1Nc1ncc2c(n1)N1CCc3cccc(c31)C(=O)N2C [Compound 24] | – | – | 79
COc1cc(C(=O)N2CCC(N3CCN(C)CC3)CC2)ccc1Nc1ncc2c(n1)N(C1CCCC1)c1ccccc1C(=O)N2C [Compound 25, 11-cyclopentyl-2-((2-methoxy-4-(4-(4-methylpiperazin-1-yl)piperidine-1-carbonyl)phenyl)amino)-5-methyl-5H-benzo[e]pyrimido[5,4-b][1,4]diazepin-6(11H)-one] | 19 | 100 | 100
CCOc1cc(C(=O)N2CCC(N3CCN(C)CC3)CC2)ccc1Nc1ncc2c(n1)N(C1CCCC1)c1ccccc1C(=O)N2C [Compound 26] | 57 | 100 | 100
